Where a name gives a salt, the structure may show the parent alone.
system: Acinetobacter baumannii ATCC17978; assay: Antimicrobial susceptibility testing: 90% growth inhibitory concentration (IC90) determination, Iso-Sensitest broth; format: cell-based; conditions: 90% growth inhibitory concentration, Acinetobacter baumannii ATCC17978, Iso-Sensitest broth, OD 600 nm over 16 h; read-out: ATCC17978 IC90
Procedure: Antimicrobial Susceptibility Testing:
90% Growth Inhibitory Concentration (IC90) Determination
The in vitro antimicrobial activity of the compounds was determined according to the following procedure:
The assay used a 10-points Iso-Sensitest broth medium to measure quantitatively the in vitro activity of the compounds against Acinetobacter baumannii ATCC17978 and Acinetobacter baumannii ATCC17961.
Microtiter plates were incubated at 35±2° C.
Bacterial cell growth was determined with the measurement of optical density at λ=600 nm each 20 minutes over a time course of 16 h. Growth inhibition was calculated during the logarithmic growth of the bacterial cells with determination of the concentration inhibiting 50% (IC50) and 90% (IC90) of the growth.

Compound	IC90 [nM]
COc1ccc(-c2cnc3c(Nc4ccc(C(=O)N5CCN(c6nccn6C)CC5)c(C)c4)nccn23)cc1F [Example 41, (4-((3-(3-fluoro-4-methoxyphenyl)imidazo[1,2-a]pyrazin-8-yl)amino)-2-methylphenyl)(4-(1-methyl-1H-imidazol-2-yl)piperazin-1-yl)methanone]	110
1-[4-[[3-[4-(cyanomethoxy)-2,3-difluoro-phenyl]imidazo[1,2-a]pyrazin-8-yl]amino]-2-methyl-benzoyl]-N-methylsulfonyl-piperidine-4-carboxamide trifluoroacetate [Example 100]	1600
Cc1cc(Nc2nccn3c(-c4ccc(OC(F)F)cc4)cnc23)ccc1C(=O)N1CCC(C(N)=O)CC1 [Example 4, 1-(4-((3-(4-(difluoromethoxy)phenyl)imidazo[1,2-a]pyrazin-8-yl)amino)-2-methylbenzoyl)piperidine-4-carboxamide]	120
Cc1cc(Nc2nccn3c(-c4ccc(OC(F)F)cc4)cnc23)ccc1C(=O)N1CCC(Oc2ncccn2)CC1 [Example 12]	720
COc1ccc(-c2cnc3c(Nc4ccc(C(=O)N5CCN(C(=O)[C@H]6CCNC[C@@H]6O)CC5)c(C)c4)nccn23)c(F)c1F [Example 192, [4-[[3-(2,3-difluoro-4-methoxy-phenyl)imidazo[1,2-a]pyrazin-8-yl]amino]-2-methyl-phenyl]-[4-[(3R,4S)-3-hydroxypiperidine-4-carbonyl]piperazin-1-yl]methanone hydrochloride]	290
Cc1cc(Nc2nccn3c(-c4ccc(OC(F)F)cc4)cnc23)ccc1C(=O)N1CCN(C(=O)NC2CCNCC2)CC1 [Example 143, 4-[4-[[3-[4-(difluoromethoxy)phenyl]imidazo[1,2-a]pyrazin-8-yl]amino]-2-methyl-benzoyl]-N-(4-piperidyl)piperazine-1-carboxamide hydrochloride]	160

Now from value to compound:

IC90 [nM]	Compound
310	Cc1cc(Nc2nccn3c(-c4ccc(OCC#N)c(F)c4F)cnc23)ccc1C(=O)N1CCC(C(=O)N2CCNC[C@H]2CO)CC1 [Example 492, 2-[2,3-difluoro-4-[8-[4-[4-[(2S)-2-(hydroxymethyl)piperazine-1-carbonyl]piperidine-1-carbonyl]-3-methylanilino]imidazo[1,2-a]pyrazin-3-yl]phenoxy]acetonitrile; for-mic acid]
71	Cc1cc(Nc2nccn3c(-c4ccc(OCC#N)c(F)c4Cl)cnc23)ccc1C(=O)N1CCN(C(=O)NC[C@H](C)N)CC1 [Example 165, N-[(2S)-2-aminopropyl]-4-[4-[[3-[2-chloro-4-(cyanomethoxy)-3-fluoro-phenyl]imidazo[1,2-a]pyrazin-8-yl]amino]-2-methyl-benzoyl]piperazine-1-carboxamide formate]
200	COc1ccc(-c2cnc3c(Nc4ccc(C(=O)N5CCN(C(=O)N[C@H](C)CN)CC5)c(C)c4)nccn23)c(Cl)c1F [Example 166, formate]
280	CNCC(=O)N1CCN(C(=O)c2ccc(Nc3nccn4c(-c5ccc(OC)c(Cl)c5)cnc34)cc2C)CC1 [Example 322, 1-[4-[4-[[3-(3-chloro-4-methoxyphenyl)imidazo[1,2-a]pyrazin-8-yl]amino]-2-methylbenzoyl]piperazin-1-yl]-2-(methylamino)ethanone; hy-drochloride]
270	Cc1cc(Nc2nccn3c(-c4ccc(OC(F)F)cc4)cnc23)ccc1C(=O)N1CCN(C(=O)[C@@H]2C[C@@H](O)CN2)CC1 [Example 180, [4-[[3-[4-(difluoromethoxy)phenyl]imidazo[1,2-a]pyrazin-8-yl]amino]-2-methyl-phenyl]-[4-[(2S,4R)-4-hydroxypyrrolidine-2-carbonyl]piperazin-1-yl]methanone hydrochloride]
260	Cc1cc(Nc2nccn3c(-c4ccc(OC(F)F)cc4)cnc23)ccc1C(=O)N1CCN(C(=O)CCNC(=N)N)CC1 [Example 225, 1-(3-(4-(4-((3-(4-(difluoromethoxy)phenyl)imidazo[1,2-a]pyrazin-8-yl)amino)-2-methylbenzoyl)piperazin-1-yl)-3-oxopropyl)guanidine]
210	Cc1cc(Nc2nccn3c(-c4ccc(OC(F)F)cc4)cnc23)ccc1C(=O)N1CCN(C(=O)C2CCCN2)CC1 (centres unmarked) [Example 177, [4-[[3-[4-(difluoromethoxy)phenyl]imidazo[1,2-a]pyrazin-8-yl]amino]-2-methyl-phenyl]-[4-(pyrrolidine-2-carbonyl)piperazin-1-yl]methanone hydrochloride]
1300	Cc1cc(Nc2nccn3c(-c4ccc(O)c(F)c4)cnc23)ccc1C(=O)N1CCC(CN)CC1 [Example 428, [4-(aminomethyl)piperidin-1-yl]-[4-[[3-(3-fluoro-4-hydroxyphenyl)imidazo[1,2-a]pyrazin-8-yl]amino]-2-methylphenyl]methanone]
190	CO[C@@H]1CNC[C@H]1NC(=O)N1CCN(C(=O)c2ccc(Nc3nccn4c(-c5ccc(OC(F)F)cc5)cnc34)cc2C)CC1 (racemic) [Example 171, 4-[4-[[3-[4-(difluoromethoxy)phenyl]imidazo[1,2-a]pyrazin-8-yl]amino]-2-methyl-benzoyl]-N-[rac-(3R,4R)-4-methoxypyrrolidin-3-yl]piperazine-1-carboxamide hydrochloride]
180	CCc1cc(Nc2nccn3c(-c4ccc(OCC#N)c(F)c4F)cnc23)ccc1C(=O)N1CCN(C(=O)[C@H]2CCNC[C@H]2O)CC1 (racemic) [Example 199, 2-[4-[8-[3-ethyl-4-[4-[rac-(3S,4S)-3-hydroxypiperidine-4-carbonyl]piperazine-1-carbonyl]anilino]imidazo[1,2-a]pyrazin-3-yl]-2,3-difluoro-phenoxy]acetonitrile formate]
190	COc1ccc(-c2cnc3c(Nc4ccc(C(=O)N5CCN(C(=O)[C@H]6CCCN6)CC5)c(C)c4)nccn23)cc1F [Example 179, [4-[[3-(3-fluoro-4-methoxy-phenyl)imidazo[1,2-a]pyrazin-8-yl]amino]-2-methyl-phenyl]-[4-[(2R)-pyrrolidine-2-carbonyl]piperazin-1-yl]methanone hydrochloride]
120	Cc1cc(Nc2nccn3c(-c4ccc(OC(F)F)cc4)cnc23)ccc1C(=O)N1CCN(C(=O)Nc2ccncc2)CC1 [Example 245, 4-[4-[[3-[4-(difluoromethoxy)phenyl]imidazo[1,2-a]pyrazin-8-yl]amino]-2-methyl-benzoyl]-N-(4-pyridyl)piperazine-1-carboxamide]

same assay, conditions: Acinetobacter baumannii, ATCC17978, 16 h, read-out: ATCC17978 IC90, 90% growth inhibitory concentration, Acinetobacter baumannii ATCC17978, Iso-Sensitest broth, OD 600 nm over 16 h

Compound	IC90 [nM]
CNCCNC(=O)C1CCN(C(=O)c2ccc(Nc3nccn4c(-c5ccc(OC(F)F)cc5)cnc34)cc2C)CC1 [Example 358, 1-[4-[[3-[4-(difluoromethoxy)phenyl]imi-dazo[1,2-a]pyrazin-8-yl]amino]-2-methylbenzoyl]-N-[2-(methylamino)ethyl]piperidine-4-carboxamide; hydrochloride]	340
CCc1cc(Nc2nccn3c(-c4ccc(OCC#N)c(F)c4F)cnc23)ccc1C(=O)NCCNC(=O)[C@@H]1C[C@@H](O)CN1 [Example 457, (2S,4R)-N-[2-[[4-[[3-[4-(cyanomethoxy)-2,3-difluorophenyl]imidazo[1,2-a]pyrazin-8-yl]amino]-2-ethylbenzoyl]amino]ethyl]-4-hydroxypyrrolidine-2-carboxamide; formic acid]	80
Cc1cc(Nc2nccn3c(-c4ccc(OC(F)F)cc4)cnc23)ccc1C(=O)N1CCN(C(=O)N[C@@H](C)CN)CC1 [Example 491, N-[(2S)-1-aminopropan-2-yl]-4-[4-[[3-[4-(difluoromethoxy)phenyl]imi-dazo[1,2-a]pyrazin-8-yl]amino]-2-methylbenzoyl]piperazine-1-carboxamide]	300
Cc1cc(Nc2nccn3c(-c4ccc(OC(F)F)cc4)cnc23)ccc1C(=O)N1CCN(C(=O)c2cc(C(=O)O)ncn2)CC1 [Example 269, 6-[4-[4-[[3-[4-(difluoromethoxy)phenyl]imi-dazo[1,2-a]pyrazin-8-yl]amino]-2-methylbenzoyl]piperazine-1-carbonyl]pyrimidine-4-carboxylic acid]	2000
Cc1cc(Nc2nccn3c(-c4ccc(OC(F)F)cc4)cnc23)ccc1C(=O)N1CCC(C(=O)N2C[C@H](O)[C@@H](O)C2)CC1 (racemic) [Example 415, [4-[[3-[4-(difluoromthoxy)phenyl]imi-dazo[1,2-a]pyrazin-8-yl]amino]-2-methylphenyl]-[4-[rac-(3R,4R)-3,4-dihydroxypyrrolidine-1-carbonyl]piperidin-1-yl]methanone]	780
Cc1cc(Nc2nccn3c(-c4ccc(OC(F)F)cc4)cnc23)ccc1C(=O)N1CCN(C(=O)[C@H]2C[C@H](N)C2)CC1 [Example 250, [4-(3-aminocyclobutanecarbonyl)piperazin-1-yl]-[4-[[3-[4-(difluoromethoxy)phenyl]imidazo[1,2-a]pyrazin-8-yl]amino]-2-methyl-phenyl]methanone hydrochloride]	160
Cc1cc(Nc2nccn3c(-c4ccc(OC(F)F)cc4)cnc23)ccc1C(=O)N1CCN(C(=O)[C@@H](N)CO)CC1 [Example 526, (2S)-2-amino-1-[4-[4-[[3-[4-(difluoromethoxy)phenyl]imi-dazo[1,2-a]pyrazin-8-yl]amino]-2-methylbenzoyl]piperazin-1-yl]-3-hydroxypropan-1-one; hydrochloride]	560

same assay, conditions: read-out: ATCC17978 IC90; 90% growth inhibitory concentration, Acinetobacter baumannii ATCC17978, Iso-Sensitest broth, OD 600 nm over 16 h

Compound	IC90 [nM]
CNCC(=O)N1CCN(C(=O)c2ccc(Nc3nccn4c(-c5ccc(OC(F)F)cc5)cnc34)cc2C)CC1 [Example 331, 1-[4-[4-[[3-[4-(difluoromethoxy)phenyl]imi-dazo[1,2-a]pyrazin-8-yl]amino]-2-methylbenzoyl]piperazin-1-yl]-2-(methylamino)ethanone]	410

From US20230011869A1 (Hoffmann-La Roche Inc., priority 2018, published 2023)
